Experimental data as given in patent US10479780B2, “Aminopyrazole derivatives” (Chugai Seiyaku Kabushiki Kaisha, priority 2015, dated 2019).

Experiments:
Type in all cases: biochemical
human Yes1 enzyme = molecular target: T1, human Yes1 enzyme (Homo sapiens, UniProt P07947); assay: Yes1 enzyme inhibitory activity (time-resolved fluorometry, biotinylated peptide phosphorylation); conditions: biotinylated peptide phosphorylation, read-out: YES_IC50
T1 construct: made in house
Outline: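 Inhibition was expressed against a compound-free control to give IC50, using TR-FRET read-out (Eu-cryptate anti-pTyr antibody, streptavidin-XL665).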

human Lck enzyme = molecular target: T2, human Lck enzyme (Homo sapiens, UniProt P06239); assay: Lck enzyme inhibitory activity (time-resolved fluorometry, biotinylated peptide phosphorylation); conditions: biotinylated peptide phosphorylation, read-out: LCK_IC50
T2 construct: purchased Carna Biosciences, Inc. 08-170
Outline: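 Readout pairs a europium cryptate-labelled anti-phosphotyrosine antibody with XL665-streptavidin, measured by time-resolved fluorescence. IC50 derived from percent inhibition against untreated controls.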

human Src enzyme = molecular target: T3, human Src enzyme (Homo sapiens, UniProt P12931); assay: Src enzyme inhibitory activity (time-resolved fluorometry, biotinylated peptide phosphorylation); conditions: biotinylated peptide phosphorylation, read-out: SRC_IC50
T3 construct: purchased Carna Biosciences, Inc. 08-173
Outline: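 Compounds were tested for blocking tyrosine phosphorylation of a biotinylated peptide substrate by recombinant human Src. Phosphorylated product was quantified by time-resolved fluorometry using europium cryptate and XL665 conjugates, and IC50 was calculated against the compound-free control.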

T3 sequence (P12931 whole entry): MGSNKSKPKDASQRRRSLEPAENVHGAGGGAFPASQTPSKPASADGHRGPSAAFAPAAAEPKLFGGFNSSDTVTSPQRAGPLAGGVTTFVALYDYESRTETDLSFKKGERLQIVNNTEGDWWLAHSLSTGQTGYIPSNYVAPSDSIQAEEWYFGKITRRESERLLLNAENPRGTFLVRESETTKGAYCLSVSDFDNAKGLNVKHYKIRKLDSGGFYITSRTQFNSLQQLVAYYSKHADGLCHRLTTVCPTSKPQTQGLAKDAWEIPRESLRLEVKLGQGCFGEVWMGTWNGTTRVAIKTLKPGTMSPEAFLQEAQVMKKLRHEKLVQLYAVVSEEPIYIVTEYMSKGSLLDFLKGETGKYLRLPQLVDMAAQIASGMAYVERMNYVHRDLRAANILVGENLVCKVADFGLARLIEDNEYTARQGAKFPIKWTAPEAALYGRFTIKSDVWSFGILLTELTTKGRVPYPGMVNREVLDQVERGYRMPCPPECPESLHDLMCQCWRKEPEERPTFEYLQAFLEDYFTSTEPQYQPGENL
T2 sequence (P06239 whole entry): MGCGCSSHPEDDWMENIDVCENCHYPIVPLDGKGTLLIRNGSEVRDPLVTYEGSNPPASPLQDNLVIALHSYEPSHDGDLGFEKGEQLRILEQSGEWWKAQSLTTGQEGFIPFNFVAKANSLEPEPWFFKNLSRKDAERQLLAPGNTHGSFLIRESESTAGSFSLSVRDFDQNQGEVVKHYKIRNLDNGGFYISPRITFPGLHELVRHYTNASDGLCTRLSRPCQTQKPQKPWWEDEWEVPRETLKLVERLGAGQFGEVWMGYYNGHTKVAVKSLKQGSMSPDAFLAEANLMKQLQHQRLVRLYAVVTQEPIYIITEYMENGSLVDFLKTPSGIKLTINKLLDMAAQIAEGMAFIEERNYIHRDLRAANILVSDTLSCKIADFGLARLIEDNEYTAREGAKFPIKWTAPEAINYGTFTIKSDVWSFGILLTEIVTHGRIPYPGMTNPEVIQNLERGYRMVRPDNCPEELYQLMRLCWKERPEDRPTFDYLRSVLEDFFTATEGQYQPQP
T1 sequence (P07947 whole entry): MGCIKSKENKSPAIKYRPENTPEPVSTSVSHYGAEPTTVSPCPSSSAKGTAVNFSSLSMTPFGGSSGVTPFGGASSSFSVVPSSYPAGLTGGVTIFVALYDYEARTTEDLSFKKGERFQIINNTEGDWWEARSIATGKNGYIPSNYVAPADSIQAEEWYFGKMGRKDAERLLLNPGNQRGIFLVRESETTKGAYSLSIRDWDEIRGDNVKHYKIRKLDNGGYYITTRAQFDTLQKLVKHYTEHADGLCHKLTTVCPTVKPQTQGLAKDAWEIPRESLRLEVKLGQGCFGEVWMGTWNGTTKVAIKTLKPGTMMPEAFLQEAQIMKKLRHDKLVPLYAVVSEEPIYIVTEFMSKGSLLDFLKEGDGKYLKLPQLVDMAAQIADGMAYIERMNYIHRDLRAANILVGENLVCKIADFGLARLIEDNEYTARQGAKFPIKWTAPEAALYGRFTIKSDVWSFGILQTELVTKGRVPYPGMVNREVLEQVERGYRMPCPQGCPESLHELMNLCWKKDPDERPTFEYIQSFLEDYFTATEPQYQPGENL

| IC50 (human Yes1 enzyme) | IC50 (human Lck enzyme) | IC50 (human Src enzyme) | Structure (SMILES) |
| --- | --- | --- | --- |
| 14 nM | 150 nM | 1200 nM | Cc1cc2cc(C(=O)c3cnn(-c4cnc(Oc5c(F)cccc5F)cc4C)c3N)[nH]c2cc1NS(=O)(=O)c1cccc(C#N)c1 [Example 5-1-555, N-[2-[5-amino-1-[6-(2,6-difluorophenoxy)-4-methylpyridin-3-yl]pyrazole-4-carbonyl]-5-methyl-1H-indol-6-yl]-3-cyanobenzenesulfonamide] |
| 8.8 nM | 150 nM | 1000 nM | Cc1cc(Oc2ccccc2F)ncc1-n1ncc(C(=O)c2cc3cc(F)c(NS(=O)(=O)c4cccc(C#N)c4)cc3[nH]2)c1N [Example 5-1-556, N-[2-[5-amino-1-[6-(2-fluorophenoxy)-4-methylpyridin-3-yl]pyrazole-4-carbonyl]-5-fluoro-1H-indol-6-yl]-3-cyanobenzenesulfonamide] |
| 19 nM | 320 nM | 1500 nM | Cc1cc2cc(C(=O)c3cnn(-c4cnc(Oc5c(F)cccc5F)cc4C)c3N)[nH]c2cc1NS(=O)(=O)c1cccc(Cl)c1 [Example 5-1-557, N-[2-[5-amino-1-[6-(2,6-difluorophenoxy)-4-methylpyridin-3-yl]pyrazole-4-carbonyl]-5-methyl-1H-indol-6-yl]-3-chlorobenzenesulfonamide] |
| 4.9 nM | 230 nM | 1500 nM | Cc1cc(Oc2ccccc2F)ccc1-n1ncc(C(=O)c2cc3cc(F)c(NS(=O)(=O)c4cccc(Cl)c4)cc3[nH]2)c1N [Example 5-1-558, N-[2-[5-amino-1-[4-(2-fluorophenoxy)-2-methylphenyl]pyrazole-4-carbonyl]-5-fluoro-1H-indol-6-yl]-3-chlorobenzenesulfonamide] |
| 17 nM | 810 nM | 2400 nM | Cc1cc(Oc2c(F)cccc2F)ncc1-n1ncc(C(=O)c2cc3cc(F)c(NS(=O)(=O)c4cccc(Cl)c4)cc3[nH]2)c1N [Example 5-1-559, N-[2-[5-amino-1-[6-(2,6-difluorophenoxy)-4-methylpyridin-3-yl]pyrazole-4-carbonyl]-5-fluoro-1H-indol-6-yl]-3-chlorobenzenesulfonamide] |
| 16 nM | 690 nM | 2400 nM | Cc1cc(Oc2ccccc2F)ncc1-n1ncc(C(=O)c2cc3cc(F)c(NS(=O)(=O)c4cccc(Cl)c4)cc3[nH]2)c1N [Example 5-1-560, N-[2-[5-amino-1-[6-(2-fluorophenoxy)-4-methylpyridin-3-yl]pyrazole-4-carbonyl]-5-fluoro-1H-indol-6-yl]-3-chlorobenzenesulfonamide] |
| 17 nM | 270 nM | 940 nM | Cc1cc2cc(C(=O)c3cnn(-c4cnc(Oc5c(F)cccc5F)cc4C)c3N)[nH]c2cc1NS(=O)(=O)c1cc(F)cc(F)c1 [Example 5-1-561, N-[2-[5-amino-1-[6-(2,6-difluorophenoxy)-4-methylpyridin-3-yl]pyrazole-4-carbonyl]-5-methyl-1H-indol-6-yl]-3,5-difiuorobenzenesulfonamide] |
| 5.3 nM | 180 nM | 830 nM | Cc1cc(Oc2ccccc2F)ccc1-n1ncc(C(=O)c2cc3cc(F)c(NS(=O)(=O)c4cc(F)cc(F)c4)cc3[nH]2)c1N [Example 5-1-562, N-[2-[5-amino-1-[4-(2-fluorophenoxy)-2-methylphenyl]pyrazole-4-carbonyl]-5-fluoro-1H-indol-6-yl]-3,5-difluorobenzenesulfonamide] |
| 17 nM | 590 nM | 1200 nM | Cc1cc(Oc2c(F)cccc2F)ncc1-n1ncc(C(=O)c2cc3cc(F)c(NS(=O)(=O)c4cc(F)cc(F)c4)cc3[nH]2)c1N [Example 5-1-563, N-[2-[5-amino-1-[6-(2,6-difluorophenoxy)-4-methylpyridin-3-yl]pyrazole-4-carbonyl]-5-fluoro-1H-indol-6-yl]-3,5-difluorobenzenesulfonamide] |
| 14 nM | 680 nM | 1500 nM | Cc1cc(Oc2ccccc2F)ncc1-n1ncc(C(=O)c2cc3cc(F)c(NS(=O)(=O)c4cc(F)cc(F)c4)cc3[nH]2)c1N [Example 5-1-564, N-[2-[5-amino-1-[6-(2-fluorophenoxy)-4-methylpyridin-3-yl]pyrazole-4-carbonyl]-5-fluoro-1H-indol-6-yl]-3,5-difluorobenzenesulfonamide] |
| 19 nM | 720 nM | 1100 nM | Cc1cc2cc(C(=O)c3cnn(-c4cnc(Oc5c(F)cccc5F)cc4C)c3N)[nH]c2cc1NS(=O)(=O)c1c(F)cc(F)cc1F [Example 5-1-565, N-[2-[5-amino-1-[6-(2,6-difluorophenoxy)-4-methylpyridin-3-yl]pyrazole-4-carbonyl]-5-methyl-1H-indol-6-yl]-2,4,6-trifluorobenzenesulfonamide] |
| 5.6 nM | 340 nM | 810 nM | Cc1cc(Oc2ccccc2F)ccc1-n1ncc(C(=O)c2cc3cc(F)c(NS(=O)(=O)c4c(F)cc(F)cc4F)cc3[nH]2)c1N [Example 5-1-566, N-[2-[5-amino-1-[4-(2-fluorophenoxy)-2-methylphenyl]pyrazole-4-carbonyl]-5-fluoro-1H-indol-6-yl]-2,4,6-trifluorobenzenesulfonamide] |
| 19 nM | 610 nM | 1200 nM | Cc1cc(Oc2c(F)cccc2F)ncc1-n1ncc(C(=O)c2cc3cc(F)c(NS(=O)(=O)c4c(F)cc(F)cc4F)cc3[nH]2)c1N [Example 5-1-567, N-[2-[5-amino-1-[6-(2,6-difluorophenoxy)-4-methylpyridin-3-yl]pyrazole-4-carbonyl]-5-fluoro-1H-indol-6-yl]-2,4,6-trifluorobenzenesulfonamide] |
| 17 nM | 750 nM | 1300 nM | Cc1cc(Oc2ccccc2F)ncc1-n1ncc(C(=O)c2cc3cc(F)c(NS(=O)(=O)c4c(F)cc(F)cc4F)cc3[nH]2)c1N [Example 5-1-568, N-[2-[5-amino-1-[6-(2-fluorophenoxy)-4-methylpyridin-3-yl]pyrazole-4-carbonyl]-5-fluoro-1H-indol-6-yl]-2,4,6-trifluorobenzenesulfonamide] |
| 4.1 nM | 22 nM | 230 nM | COc1ccnc(S(=O)(=O)Nc2cc3[nH]c(C(=O)c4cnn(-c5cnc(Oc6c(F)cccc6F)cc5C)c4N)cc3cc2OCC(F)F)c1 [Example 5-1-569, N-[2-[5-amino-1-[6-(2,6-difluorophenoxy)-4-methylpyridin-3-yl]pyrazole-4-carbonyl]-5-(2,2-difluoroethoxy)-1H-indol-6-yl]-4-methoxypyridine-2-sulfonamide] |
| 2.1 nM | 9.6 nM | 410 nM | Cc1cc(Oc2c(F)cccc2F)ncc1-n1ncc(C(=O)c2cc3cc(OCC(F)F)c(NS(=O)(=O)c4cccc(F)n4)cc3[nH]2)c1N [Example 5-1-570, N-[2-[5-amino-1-[6-(2,6-difluorophenoxy)-4-methylpyridin-3-yl]pyrazole-4-carbonyl]-5-(2,2-difluoroethoxy)-1H-indol-6-yl]-6-fluoropyridine-2-sulfonamide] |
| 2.2 nM | 30 nM | 540 nM | Cc1cnc(F)c(S(=O)(=O)Nc2cc3[nH]c(C(=O)c4cnn(-c5cnc(Oc6c(F)cccc6F)cc5C)c4N)cc3cc2OCC(F)F)c1 [Example 5-1-571, N-[2-[5-amino-1-[6-(2,6-difluorophenoxy)-4-methylpyridin-3-yl]pyrazole-4-carbonyl]-5-(2,2-difluoroethoxy)-1H-indol-6-yl]-2-fluoro-5-methylpyridine-3-sulfonamide] |
| 3.5 nM | 21 nM | 690 nM | Cc1cc(Oc2c(F)cccc2F)ncc1-n1ncc(C(=O)c2cc3cc(OCC(F)F)c(NS(=O)(=O)c4cccc(Cl)n4)cc3[nH]2)c1N [Example 5-1-572, N-[2-[5-amino-1-[6-(2,6-difluorophenoxy)-4-methylpyridin-3-yl]pyrazole-4-carbonyl]-5-(2,2-difluoroethoxy)-1H-indol-6-yl]-6-chloropyridine-2-sulfonamide] |
| 2.9 nM | 14 nM | 440 nM | Cc1cccc(S(=O)(=O)Nc2cc3[nH]c(C(=O)c4cnn(-c5cnc(Oc6c(F)cccc6F)cc5C)c4N)cc3cc2OCC(F)F)n1 [Example 5-1-573, N-[2-[5-amino-1-[6-(2,6-difluorophenoxy)-4-methylpyridin-3-yl]pyrazole-4-carbonyl]-5-(2,2-difluoroethoxy)-1H-indol-6-yl]-6-methylpyridine-2-sulfonamide] |
| 2.8 nM | 13 nM | 540 nM | Cc1cc(Oc2c(F)cccc2F)ncc1-n1ncc(C(=O)c2cc3cc(OCC(F)F)c(NS(=O)(=O)c4cccc(C#N)n4)cc3[nH]2)c1N [Example 5-1-574, N-[2-[5-amino-1-[6-(2,6-difluorophenoxy)-4-methylpyridin-3-yl]pyrazole-4-carbonyl]-5-(2,2-difluoroethoxy)-1H-indol-6-yl]-6-cyanopyridine-2-sulfonamide] |
| 4.3 nM | 46 nM | 650 nM | Cc1cc(Oc2c(F)cccc2F)ncc1-n1ncc(C(=O)c2cc3cc(OCC(F)F)c(NS(=O)(=O)c4cncc(Cl)c4)cc3[nH]2)c1N [Example 5-1-575, N-[2-[5-amino-1-[6-(2,6-difluorophenoxy)-4-methylpyridin-3-yl]pyrazole-4-carbonyl]-5-(2,2-difluoroethoxy)-1H-indol-6-yl]-5-chloropyridine-3-sulfonamide] |
